What was measured:
Type in all cases: in vivo, Japanese large-ear white rabbits
[1] = tested on: rabbit platelet aggregation induced by PAF; experiment: Platelet aggregation rate induced by PAF in platelet-rich plasma of dosed rabbits; conditions: for Platelet aggregation inhibition rate (%) / platelet aggregation rate, 1 min / platelet aggregation rate, 5 min / maximum platelet aggregation rate (MAX): rabbits 5.0 mg/kg once daily 7 days; for Platelet aggregation inhibition rate (%) / maximum platelet aggregation rate (MAX): PAF-induced; for Platelet aggregation inhibition rate (%): relative to saline group; for platelet aggregation rate, 1 min / platelet aggregation rate, 5 min / maximum platelet aggregation rate (MAX): PRP, x ± s, n = 8; for platelet aggregation rate, 1 min: 1 min after addition of 10 μL PAF; for platelet aggregation rate, 5 min: 5 min after addition of 10 μL PAF; for maximum platelet aggregation rate comparing with the saline group: under the induction of PAF, p<0.01, p<<0.05
Procedure: 128 Japanese large-ear white rabbits with a weight of (2.0±0.2) kg, half male and half female, were provided by Chongqing Medical University Experimental Animal Center [animal certification number: XCXK (Yu) 20020001].
Platelet activation factors (PAF) (cayman, lot number: 011219) was dissolved in the Tris-NaCl solution containing 0.25% of calf serum albumin at a pH of 7.6, to a final concentration of 3.6 nmoL/L; sodium citrate (Beijing Zhongshanjinqiao Biotechnology Company, lot number: 20130117) dissolved in the distilled water with 3.8% concentration; rabbit β-thromboglobulin (β-TG) ELISA kit (FOCUS, lot number: 20130224), rabbit platelet factor 4 (PF-4) (lot number: ELISA kit (FOCUS, lot number: 20130301). TYXN-96 multifunctional intelligent aggregometer (Shanghai General Technique Research Institute); Scanning electron microscope S-3000 N (Hitachi Limited); ELX-800 Absorbance Reader (BioTek Instruments, Inc.).
128 Japanese large-ear white rabbits were randomly assigned to 16 groups, with 8 rabbits in each group: (1) Saline group, (2) Ginkgolide B group, (3) Aspirin group, (4) Jinnaduo group, (5) Composition 1 group, (6) Composition 2 group, (7) Composition 3 group, (8) Composition 4 group, (9) Composition 5 group, (10) Composition 6 group, (11) Composition 7 group, (12) Composition 8 group, (13) Composition 9 group, (14) Composition 10 group, (15) Composition 11 group, (16) Composition 12 group. All groups were administered with a clinically used route and dosage for 7 days continuously.
After 7 days of administration, 10.5 ml of blood was taken from the heart of each animal, wherein 1.5 ml of plasma was used for taking serum and the rest 9 ml of plasma was subjected to 3.8% sodium citrate at 1:9 for anticoagulation, centrifuging for 10 minutes at 800 r/min, and taking the supernatant to obtain platelet-rich plasma (PRP).), wherein 100 μl of the PRP was taken for electron microscope examination, and the rest of the PRP was used for detecting of the platelet aggregation rate; the remaining portion was centrifuged for 15 min at a speed of 3000 r/min, and platelet-depleted plasma (PPP) was obtained. PPP was used to adjust the number of platelet in PRP, to be at 360×10^9/L. The platelet aggregation rate and maximum platelet aggregation rate was studied and recorded after 1 min, 5 min of addition of 10 μL of PAF.
The statistical analysis is carried out using SPSS 18.0 software, and the platelet aggregation rates, the percentage of types of platelet morphology and the concentration of PF-4 and β-TG were analyzed using two-sample t-test. P-values<0.05 were considered statistically significant.

[2] = tested on: platelets (morphology types after PAF); experiment: Scanning electron microscopy study of platelet morphology after addition of PAF; conditions: for Types of morphology (%): Aggregated / Types of morphology (%): Circle / Types of morphology (%): Flat / Types of morphology (%): Tree like: rabbits 5.0 mg/kg once daily 7 days, PRP + PAF, SEM, 100 platelets, x ± s, n = 8; for Aggregated type platelets under scanning electron microscope: under induction of PAF, 2000-fold SEM
Procedure: 128 Japanese large-ear white rabbits with a weight of (2.0±0.2) kg, half male and half female, were provided by Chongqing Medical University Experimental Animal Center [animal certification number: XCXK (Yu) 20020001]. 128 Japanese large-ear white rabbits were randomly assigned to 16 groups, with 8 rabbits in each group: […] All groups were administered with a clinically used route and dosage for 7 days continuously. […] The types of platelet under the electron microscope includes: […] (3) Flat type has a dense core in the center and a wide transparent peripheral zone which has a smooth periphery or small bulges. (4) Aggregated-type is usually composed of several to dozens of platelets, with different sizes of the aggregates, wherein the platelets are mutually connected, some of the platelets are integrally fused into a whole, and the foot processes of the peripheral part are prominent.

[3] = tested on: rabbit platelet factor 4 (PF-4); experiment: Determination of PF-4 level in serum (ELISA) after PAF induction; conditions: for PF-4 level: rabbits 5.0 mg/kg once daily 7 days, serum after PAF induction, x ± s, n = 8
Excerpt: (§1) 128 Japanese large-ear white rabbits with a weight of (2.0±0.2) kg, half male and half female, were provided by Chongqing Medical University Experimental Animal Center [animal certification number: XCXK (Yu) 20020001]. […] ELISA kit (FOCUS, lot number: 20130301). TYXN-96 multifunctional intelligent aggregometer (Shanghai General Technique Research Institute); Scanning electron microscope […]-800 Absorbance Reader (BioTek Instruments, Inc.). 128 Japanese large-ear white rabbits were randomly assigned to 16 groups, with 8 rabbits in each group: […] All groups were administered with a clinically used route and dosage for 7 days continuously. […] The plasma was rested at 4° C. for 4 hours, and 200 μL of serum was taken for detection. The specific operation is carried out according to the kit specification, and the result was read by the Absorbance Reader.

[4] = tested on: rabbit β-thromboglobulin (β-TG); experiment: Determination of β-TG level in serum (ELISA) after PAF induction; conditions: for level of β-TG compared with the saline group: p<0.01, p<0.05; for β-TG level: rabbits 5.0 mg/kg once daily 7 days, serum after PAF induction, x ± s, n = 8
Excerpt: as §1

Compound | Platelet aggregation inhibition rate (%) [1] [%] | platelet aggregation rate, 1 min [1] | platelet aggregation rate, 5 min [1] | maximum platelet aggregation rate (MAX) [1] | maximum platelet aggregation rate comparing with the saline group [1] | Types of morphology (%): Aggregated [2] [%] | Types of morphology (%): Circle [2] [%] | Types of morphology (%): Flat [2] [%] | Types of morphology (%): Tree like [2] [%] | Aggregated type platelets under scanning electron microscope [2] | PF-4 level [3] [µg/mL] | level of β-TG compared with the saline group [4] | β-TG level [4] [µg/mL] | level of PF-4 compared with the saline group ([3]; p<0.01, p<0.05)
CC(=O)Oc1ccccc1C(=O)O [Aspirin, acetylsalicylic acid] | 31.53 | 25.28 ± 5.06 | 36.89 ± 5.53 | 48.08 ± 5.87 | significant difference | 54.0 ± 14.3 | 5.8 ± 2.6 | 25.5 ± 8.4 | 14.7 ± 7.0 | increased number of Aggregated type platelets | 1.489 ± 0.228 | didn't decrease significantly | 1.504 ± 0.244 | –
CC1C(=O)OC2C(O)C34C5CC(C(C)(C)C)C36C(OC(=O)C6O)OC4(C(=O)O5)C12O (stereo not drawn) [Ginkgolide B] | 44.66 | 21.36 ± 4.15 | 33.54 ± 5.48 | 38.86 ± 4.74 | significant difference | 22.3 ± 9.6 | 31.6 ± 6.4 | 46.1 ± 8.3 | 15.8 ± 6.8 | rarely seen | 1.264 ± 0.215 | decreased significantly | 1.247 ± 0.184 | decreased significantly
